Reference: PubChem BioAssay (NCI)
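Grown in 96-well plates, cells were treated for 48 hours with each compound at five concentrations. Insufficient inhibition: endpoint recorded as highest concentration tested. GI50 = concentration required for 50% inhibition of growth. TGI denotes the concentration required for complete inhibition of growth.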

What was measured:
Assay in all cases: NCI-60 cell line screen, 48 h
A498 renal = test system: A498 renal
BT-549 breast = test system: BT-549 breast
DMS 273 small cell lung = test system: DMS 273 small cell lung
LXFL 529 NSCLC = test system: LXFL 529 NSCLC
MALME-3M melanoma = test system: MALME-3M melanoma
RXF 393 renal = test system: RXF 393 renal
SK-MEL-2 melanoma = test system: SK-MEL-2 melanoma
SK-MEL-5 melanoma = test system: SK-MEL-5 melanoma
SNB-75 CNS = test system: SNB-75 CNS
U251 CNS = test system: U251 CNS

With Cc1ccc(NC(=O)CCc2nnc3s/c(=C\C=C\c4ccccc4)c(=O)n23)cc1 the TGI (A498 renal) was over 100 µM, the TGI (BT-549 breast) was over 100 µM and the TGI (DMS 273 small cell lung) was over 100 µM. For the same compound, the TGI (LXFL 529 NSCLC) was over 100 µM, the TGI (MALME-3M melanoma) was over 100 µM and the TGI (RXF 393 renal) was over 100 µM. It also gave a TGI (SK-MEL-2 melanoma) of over 91.9 µM, a TGI (SK-MEL-5 melanoma) of over 100 µM and a TGI (SNB-75 CNS) of over 100 µM. The TGI (U251 CNS) was over 100 µM.

Cn1c(=O)nc2n(-c3ccc(F)c(F)c3)c3ccccc3nc-2c1=O gave a TGI (A498 renal) of over 100 µM, a TGI (DMS 273 small cell lung) of 36.9 µM and a TGI (LXFL 529 NSCLC) of 64.9 µM. For the same compound, the TGI (MALME-3M melanoma) was 24.3 µM, the TGI (RXF 393 renal) was 72.5 µM and the TGI (SK-MEL-2 melanoma) was 55.3 µM. The TGI (SK-MEL-5 melanoma) was 22.5 µM, the TGI (SNB-75 CNS) was 75 µM and the TGI (U251 CNS) was 36.2 µM.

CN1C(c2ccccc2)CC(=NO)CC1c1ccccc1 (centres undefined) showed a TGI (A498 renal) of over 100 µM, a TGI (DMS 273 small cell lung) of over 100 µM and a TGI (LXFL 529 NSCLC) of over 100 µM. The TGI (MALME-3M melanoma) was over 100 µM, the GI50 (RXF 393 renal) was 87.9 µM and the TGI (RXF 393 renal) was over 100 µM. It also gave a TGI (SK-MEL-2 melanoma) of over 100 µM, a GI50 (SK-MEL-5 melanoma) of 71.8 µM and a TGI (SK-MEL-5 melanoma) of over 100 µM. It also gave a TGI (SNB-75 CNS) of over 100 µM and a TGI (U251 CNS) of over 100 µM.

CC(=O)N(N=O)c1ccc(N(N=O)C(C)=O)cc1 was tested, and the TGI (A498 renal) was over 100 µM, the TGI (DMS 273 small cell lung) was over 100 µM and the TGI (LXFL 529 NSCLC) was over 100 µM. It also gave a TGI (MALME-3M melanoma) of over 100 µM, a TGI (RXF 393 renal) of over 100 µM and a TGI (SK-MEL-2 melanoma) of over 100 µM. The TGI (SK-MEL-5 melanoma) was over 100 µM, the TGI (SNB-75 CNS) was over 100 µM and the TGI (U251 CNS) was over 100 µM.

For C=CCN=C1NC(=O)C(CC(=O)Nc2cccc(Cl)c2)S1 (centres undefined), the TGI (A498 renal) was over 100 µM, the TGI (DMS 273 small cell lung) was over 100 µM and the TGI (LXFL 529 NSCLC) was over 100 µM. The TGI (MALME-3M melanoma) was over 100 µM, the TGI (RXF 393 renal) was over 100 µM and the TGI (SK-MEL-2 melanoma) was over 100 µM. It also gave a TGI (SK-MEL-5 melanoma) of over 100 µM, a TGI (SNB-75 CNS) of over 100 µM and a TGI (U251 CNS) of over 100 µM.

In the case of Cc1ccc(NC(=O)C(=O)C2C(=O)NC(=O)NC2=O)c(C)c1, the TGI (A498 renal) is reported as over 100 µM, the TGI (DMS 273 small cell lung) is reported as over 100 µM and the TGI (LXFL 529 NSCLC) is reported as over 100 µM. It also gave a TGI (MALME-3M melanoma) of over 100 µM, a TGI (RXF 393 renal) of over 100 µM and a TGI (SK-MEL-2 melanoma) of over 100 µM. The TGI (SK-MEL-5 melanoma) was over 100 µM, the TGI (SNB-75 CNS) was over 100 µM and the TGI (U251 CNS) was over 100 µM.

For CSc1ccc(Cc2cc(C(C)(C)C)cc(C(C)(C)C)c2O)cc1, the TGI (A498 renal) was 29.3 µM, the TGI (DMS 273 small cell lung) was 26.7 µM and the TGI (LXFL 529 NSCLC) was 26.9 µM. For the same compound, the TGI (MALME-3M melanoma) was 28.7 µM, the TGI (RXF 393 renal) was 26.3 µM and the TGI (SK-MEL-2 melanoma) was 16.3 µM. For the same compound, the TGI (SK-MEL-5 melanoma) was 28.9 µM, the TGI (SNB-75 CNS) was 29.7 µM and the TGI (U251 CNS) was 28.6 µM.

For CCCC(=O)Oc1ccc(/C=N/NC(N)=S)nc1, the TGI (A498 renal) was over 100 µM, the TGI (DMS 273 small cell lung) was over 100 µM and the TGI (LXFL 529 NSCLC) was over 100 µM. It also gave a TGI (MALME-3M melanoma) of over 100 µM, a TGI (RXF 393 renal) of over 100 µM and a TGI (SK-MEL-2 melanoma) of over 100 µM. For the same compound, the TGI (SK-MEL-5 melanoma) was over 100 µM, the TGI (SNB-75 CNS) was over 100 µM and the TGI (U251 CNS) was over 100 µM.

In the case of OCC1CC2C=CCC(C2)C1 (centres undefined), the TGI (A498 renal) is reported as over 100 µM, the TGI (DMS 273 small cell lung) is reported as over 100 µM and the TGI (LXFL 529 NSCLC) is reported as over 100 µM. For the same compound, the TGI (MALME-3M melanoma) was over 100 µM, the TGI (RXF 393 renal) was over 100 µM and the TGI (SK-MEL-2 melanoma) was over 100 µM. It also gave a TGI (SK-MEL-5 melanoma) of over 100 µM, a TGI (SNB-75 CNS) of over 100 µM and a TGI (U251 CNS) of over 100 µM.
